5 molecules from patent publication US4211772A, “Benzopyran glycoside acetals and ketals” (Laboratoires Sarget, priority 1977, dated 1980) can be followed below.

One series concerns galactosemic cataract. As to the kind of experiment: Galactosemic cataract in rats. The class given is in vivo, weaning male EOPS Wistar rats. The note with it: 100 mg/kg/d i.p. The procedure: GALACTOSEMIC CATARACT IN RATS
The study was conducted using weaning male EOPS Wistar rats having an initial weight of between 45 and 50 g. The animals were fed a high vitamin and high protein regimen containing 20% by weight of galactose. The first signs of cataracts, detected by the ophthalmoscope, appeared beginning with the third day. The animals received daily i.p. doses of the test compound, the treatment being started four days after the commencement of the galactosemic regimen. The evolution of the cataract was followed by the detection of maroon rings visible in the ophthalmoscope. These rings appeared on the external edge of the lens and progressed little by little to its center. Anatomopathological studies of the lenses confirmed that these brown rings correspond well to the characteristic histological lesions of galactosemic cataracts. Photographs taken with the aid of a retinograph facilitated the comparison of the evolution of the lesions.
Statistical calculations according to the .chi.^2 method permit an evaluation of the significance of the results obtained for each of the treatments compared to those for non-treated animals.

Another series in a line: Solubilities in water. The class given is physicochemical. The note with it: for solubility: water, read-out: Solubilities in water.
In a further series the target is T1, Aldose Reductase (Bos taurus, UniProt P16116).
T1 construct: The enzyme is extracted from beef eye lenses; from tissue; host or cells: beef eye lenses
As to the kind of experiment: Inhibition of aldose reductase in vitro (enzyme from beef eye lenses, glyceraldehyde substrate). The class given is biochemical. As to conditions: in DMF solution, read-out: percentages of inhibition (aldose reductase); for inhibition at 100 µM: 10^-4 mole/l; for inhibition at 10 µM: 10^-5 mole/l. An excerpt: Inhibition of Aldose Reductase In Vitro
The reoxidation of NADPH coupled to the enzymatic reaction was followed spectrophotometrically at 340 nm.

In a further series the test system is carragenin edema. As to the kind of experiment: Anti-inflammatory activity: carragenin edema test. The class given is in vivo. The note with it: Rattus norvegicus, ip, saturated bicarbonate solution, read-out: % inhibition of carragenin edema; for inhibition in vivo at 75 mg/kg: 75 mg/kg i.p.; for inhibition in vivo at 150 mg/kg: 150 mg/kg i.p. The procedure: Anti-inflammatory activity
This was determined by the carragenin edema test using male Wistar EOPS rats. Inflammation was induced by the injection of 0.1 ml of a suspension of 5% carragenin in physiological serum into the muscular bundle of the metatarsal region of the posterior paw of the animal. The test substance was administered i.p. in neutralized solution at the same time as the carragenin.
Edema was measured by plethysmometry at different times after the administration of the carragenin.
Tables IV and V show the percentages of inhibition as a function of time and of dosage for certain compounds of the present invention.
The above results were obtained for solutions of substantially alkaline
The reference experiments were performed using physiological serum brough
to a pH approximately the same as the pH of the solutions to be tested.

A further series deals with capillary permeability. The series is described as follows: Capillaroprotecting effects: capillary permeability. The class given is in vivo, conventional male Wistar rats. As to the method: (§1) Capillaroprotecting effects
The capillary permeability was determined by the method of Charlier et al, Arch. Inter. Physiol.

The next series deals with capillary resistance. As to the kind of experiment: Capillaroprotecting effects: capillary resistance. The class given is in vivo, male OFA EOPS rats. As to the method:
as §1
The capillary resistance was determined by a variant of the method of Charlier et al, Arch. Inter. Physiol.

Converted amounts (≈) assume the structure as drawn. Where two headings read alike, the source gives them in different places.

Consider `O=c1c(O[C@@H]2O[C@H](CO[C@@H]3OC[C@H](O)[C@H](O)[C@H]3O)[C@@H](O)[C@H](O)[C@H]2O)c(-c2ccc(O)c(O)c2)oc2cc(O)cc(O)c12` [3-Vicianosyl quercetin, reference compound], for which the “percentage of animals which have not yet shown the appearance of cataracts” value was 100% in the series on galactosemic cataract (day 0); 100% with galactosemic cataract (day 1); 97% in the series with galactosemic cataract (day 2); 59% in the series with galactosemic cataract (day 3); 40% with galactosemic cataract (day 4); 31% in the series on galactosemic cataract (day 5). Also, the “percentage of animals which have not yet shown the appearance of cataracts” value in the series with galactosemic cataract (day 6) was 12%; with galactosemic cataract (day 10) it was 9%; in the series on galactosemic cataract (day 12) it was 19%; in the series on galactosemic cataract (day 16) it was 22%; with galactosemic cataract (day -4) it was 100%. The “significance compared to non-treated animals (chi^2)” value with galactosemic cataract (day 4), with galactosemic cataract (day 5), with galactosemic cataract (day 6), in the series with galactosemic cataract (day 12) and in the series with galactosemic cataract (day 16) was “S” each time. The solubility in the series “Solubilities in water” is 330 µg/mL (≈ 553 µM).

In general, inhibition refers to the share of the control response that was lost under treatment. Consider `O=c1ccc2cc(O[C@@H]3O[C@H](CO)[C@@H](O)[C@H](O)[C@H]3O)c(O)cc2o1` [Esculin, reference compound], for which, at Aldose Reductase, the inhibition at 100 µM was 16%. In “Solubilities in water”, the solubility came out at 1700 µg/mL (≈ 5000 µM).

Take `O=c1c(O[C@@H]2O[C@H](CO)[C@@H](O)[C@H](O)[C@H]2O)c(-c2ccc(O)c(O)c2)oc2cc(O)cc(O)c12` [Isoquercitrin, reference compound]: the inhibition in vivo at 75 mg/kg with carragenin edema (1/2 h) is 28%; in the series with carragenin edema (1 h, 1 h), 32%; in the series with carragenin edema (2 h, 2 h), 18%; in the series on carragenin edema (3 h, 3 h), 28%; in the series with carragenin edema (4 h, 4 h) it was 22%; in the series with carragenin edema (5 h, 5 h), 23%. Further, the inhibition in vivo at 75 mg/kg in the series on carragenin edema (6 h, 6 h) was found to be 25%. Moreover, the inhibition in vivo at 150 mg/kg in the series on carragenin edema (1/2 h) came to 30%; with carragenin edema (1 h, 1 h) it was 40%; in the series with carragenin edema (2 h, 2 h), 37%; with carragenin edema (3 h, 3 h), 18%; with carragenin edema (4 h, 4 h) it was 9%; in the series on carragenin edema (5 h, 5 h), 9%. The inhibition in vivo at 150 mg/kg in the series on carragenin edema (6 h, 6 h) stood at 6%. The Solubilities in water result in “Solubilities in water” was “insoluble”.

On to `CC1(C)O[C@@H]2[C@@H](O)[C@H](OC[C@H]3O[C@@H](Oc4c(-c5ccc(O)c(O)c5)oc5cc(O)cc(O)c5c4=O)[C@H](O)[C@@H](O)[C@@H]3O)OC[C@@H]2O1` [No. 4, 3-O-(3,4-O,O-isopropylidene-6-α-L-arabinosyl-β-D-glucosyl)-quercetin], for which, at Aldose Reductase, the inhibition at 100 µM was 42% and the inhibition at 10 µM was 0%. The solubility in the series “Solubilities in water” was 600 µg/mL (≈ 943 µM).

As to `CC1(C)OC[C@H]2O[C@@H](Oc3c(-c4ccc(O)c(O)c4)oc4cc(O)cc(O)c4c3=O)[C@H](O)[C@@H](O)[C@@H]2O1` [No. 5, 3-O-(4,6-O,O-isopropylidene-β-D-glucosyl)-quercetin], the inhibition at 100 µM at Aldose Reductase worked out at 83%. For the same molecule, the inhibition at 10 µM at Aldose Reductase is 56%. For the same molecule, the inhibition at 1 µM at Aldose Reductase (10^-6 mole/l) was found to be 0%. Further, the solubility in “Solubilities in water” was less than 100 µg/mL. Moreover, the “percentage reduction of capillary permeability” value in the series on capillary permeability (50 mg/kg i.p.) is 11%; with capillary permeability (100 mg/kg i.p.), 34%; in the series with capillary permeability (200 mg/kg i.p.), 28%. For the same molecule, the “% of animals for which the effect is ≥ 25 u cm Hg/h” value in the series on capillary resistance (50 mg/kg i.p.) was determined as 60%; with capillary resistance (100 mg/kg i.p.), 80%; with capillary resistance (200 mg/kg i.p.) it was 80%. The “capillary resistance, effect observed” value in the series with capillary resistance (50 mg/kg i.p.) is given as 28 ± 9.8 u cm Hg/h; with capillary resistance (100 mg/kg i.p.), 32.25 ± 11.4 u cm Hg/h; in the series on capillary resistance (200 mg/kg i.p.) it was 37 ± 16.1 u cm Hg/h.
